Data on 90 compounds can be found in PubChem BioAssay AID1645848.

Each structure is given as a SMILES string. Converted amounts (≈) assume the structure as drawn.

For the data set the following is noted: buffer; pH 7.4; 6.0 h; 150.0 µM.
The solubility (kinetic) is solubility judged after dilution from a stock solution rather than from solid. `O=C(Cc1ccccc1)Nc1ccc(S(=O)(=O)Nc2nccs2)cc1` came in with a solubility (kinetic) greater than 55 µg/mL.

In turn, `Cc1ccc(N(C)S(=O)(=O)c2ccc(-c3cnc(C4CC4)o3)cc2)cc1` returned a solubility (kinetic) of less than 1 µg/mL.

Turning to `Cc1ccc(-c2cc(C(=O)NC3CCCCC3)c3ccccc3n2)cc1`, the kinetic solubility was less than 1 µg/mL.

With `Cc1ccc(S(=O)(=O)Nc2ncccc2C(=O)Nc2nc(-c3ccccc3)cs2)cc1`, the kinetic solubility is less than 1 µg/mL.

`N#Cc1ccccc1Nc1ncc(-c2cccc3ccccc23)o1`: the solubility (kinetic) is less than 1 µg/mL.

As for `Clc1cccc(COc2cncc(N3CCNCC3)n2)c1`, the solubility (kinetic) was greater than 45 µg/mL.

`COc1cc(-c2cc3c(nc2-c2ccccc2)nc(C(=O)NC2CCN(C)CC2)n3C)ccn1` registered a solubility (kinetic) greater than 67 µg/mL.

On to `COc1cccc(-c2csc(NC(=O)c3ccncc3NS(=O)(=O)c3ccc(C)cc3)n2)c1`, for which the kinetic solubility is greater than 71 µg/mL.

`CCOC(=O)C1CCN(C(=O)C2(NC(=O)Nc3ccc(F)cc3F)CCCCC2)CC1`: the kinetic solubility is 41.8 µg/mL (≈ 95.6 µM).

For `Fc1ccc(Nc2nc(-c3ccnc(N4CCCCC4)c3)nc3ccccc23)cc1F`, the solubility (kinetic) is less than 1 µg/mL.

The compound `Cc1cccc2nc(NC3=NC(c4[nH]ncc4Cl)C4=C(CCCC4=O)N3)oc12` (stereo not given) displayed a kinetic solubility of 1.82 µg/mL (≈ 4.6 µM).

As for `Cc1cc(C)nc(NS(=O)(=O)c2ccc(NC(=S)NC(=O)COc3ccc(Br)cc3Cl)cc2)n1`, the kinetic solubility was greater than 100 µg/mL.

The compound `Cc1cc(SCc2sc(-c3ccc(C(F)(F)F)c(F)c3)nc2C)ccc1OCC(=O)O` returned a solubility (kinetic) greater than 70 µg/mL.

The compound `CCCC1=Nc2cc(C(=O)NC3CCCC3)ccc2Sc2ccc(C)cc21` returned a solubility (kinetic) of less than 1 µg/mL.

Compound `COC(=O)c1c(NC(=O)Cc2coc3cc(C)ccc23)sc2c1CCC2` had a solubility (kinetic) of less than 1 µg/mL.

As for `COc1ccc2[nH]c(=O)c(-c3noc(-c4cccs4)n3)cc2c1`, the kinetic solubility is less than 1 µg/mL.

Turning to `COc1ccc(Nc2nc(-c3ccncc3)nc3ccccc23)cc1F`, the kinetic solubility is less than 1 µg/mL.

For `Cc1cccc(CN2CCN(c3ccccn3)CC2)c1`, the solubility (kinetic) worked out at 30.9 µg/mL (≈ 115 µM).

In the case of `O=C1Nc2cccc(Cl)c2/C1=C\c1cc(Cl)c(O)c(Cl)c1`, the kinetic solubility is less than 1 µg/mL.

Turning to `CN1CCN(c2ccc(-c3cccc(CN4CCOCC4)c3)cc2NC(=O)c2c[nH]c(=O)cc2C(F)(F)F)CC1`, the solubility (kinetic) was 69.1 µg/mL (≈ 124 µM).

For the compound `CC(C)Oc1ccc(CNC(=O)C2CCN(C(=O)N3CCOc4ccc(Cl)cc43)CC2)cc1`, the kinetic solubility came to 9.14 µg/mL (≈ 19.4 µM).

Regarding `COc1cccc(CN2CCCC(c3nc(-c4ccncc4)ncc3-c3ccccc3)C2)c1O` (stereo not given), the kinetic solubility worked out at 4.29 µg/mL (≈ 9.47 µM).

Compound `CC(=O)OCCN1C(=O)c2c(C)nc3ccc(S(=O)(=O)N4CCOCC4)cc3c2C1=O` yielded a kinetic solubility of less than 1 µg/mL.

`O=C(c1ccc2c(c1)ncn2-c1ccc(Cl)cc1)N1CCCCC1` showed a kinetic solubility greater than 50 µg/mL.

The compound `COc1c(C)c2c(c(O)c1C/C=C(\C)CCC(=O)OCCN1CCOCC1)C(=O)OC2` returned a solubility (kinetic) greater than 64 µg/mL.

The compound `Cc1cc(CNC(=O)c2ccc3c(c2)n(CC2CC2)c(=O)n3C2CCCCC2)on1` came in with a kinetic solubility of 15.6 µg/mL (≈ 38.3 µM).

On to `Cc1ccc(S(=O)(=O)Nc2cnccc2C(=O)Nc2nc(-c3ccccc3)cs2)cc1`, for which the kinetic solubility came to 9.42 µg/mL (≈ 20.9 µM).

In turn, `COc1ccc(CNC(=O)c2cnc3ccccc3n2)cc1` displayed a solubility (kinetic) of 36.1 µg/mL (≈ 123 µM).

`NC(=O)C1CCN(c2ncc(-c3cccc(N4CCCC4)c3)s2)CC1` displayed a solubility (kinetic) of 11.6 µg/mL (≈ 32.6 µM).

`CCc1cccc(NC(=O)CSc2nc3ccccc3nc2N2CCCCC2)c1` displayed a solubility (kinetic) of less than 1 µg/mL.

Turning to `Cc1c(Cl)cccc1NC(=O)CNS(=O)(=O)c1cccs1`, the solubility (kinetic) is greater than 51 µg/mL.

Compound `c1c[nH]c(C2CCN(c3ncc(-c4ccc5c(c4)OCCCO5)s3)CC2)n1` had a kinetic solubility of 4.09 µg/mL (≈ 10.7 µM).

As for `O=C(c1ccc(-c2ncc3cnc(-c4ccccc4)cn23)cc1)N1CCS(=O)(=O)CC1`, the kinetic solubility was 65.1 µg/mL (≈ 150 µM).

For `COc1cccc(NC(=S)N2CCN(c3cccc(C(F)(F)F)c3)CC2)n1`, the kinetic solubility worked out at 0.435 µg/mL (≈ 1.1 µM).

In turn, `Cc1ccc(S(=O)(=O)Nc2cnccc2C(=O)Nc2nc(C(=O)O)cs2)cc1` yielded a solubility (kinetic) greater than 62 µg/mL.

In the case of `CCOC(=O)c1cnc2ccc(-c3cncc(NS(=O)(=O)c4ccccc4)c3)cn12`, the kinetic solubility turned out to be 6.49 µg/mL (≈ 15.4 µM).

On to `O=S(=O)(Nc1nccs1)c1ccc(NCc2cc(Cl)ccc2O)cc1`, for which the solubility (kinetic) came to 37.2 µg/mL (≈ 94 µM).

Compound `C#Cc1ccc(NC(=O)c2cnn3c(C)cc(C)nc23)cc1` came in with a kinetic solubility of less than 1 µg/mL.

Compound `COc1ccnc(NC(=S)N2CCN(c3ccc(Cl)c(Cl)c3)CC2)c1` displayed a solubility (kinetic) of 3.16 µg/mL (≈ 7.96 µM).

`Cc1ccc(C(=O)Nc2cccc(C(F)(F)F)c2)cc1Nc1nc(-c2cccnc2)nc2c1cnn2C` gave a solubility (kinetic) of less than 1 µg/mL.

In the case of `O=C(Nc1nc(-c2ccccc2)cs1)c1ccncc1NS(=O)(=O)c1ccc(F)cc1F`, the solubility (kinetic) was greater than 70 µg/mL.

Take `O=C(Nc1ncc(Cc2ccc(C(F)(F)F)cc2)s1)c1ccc(-c2cccnc2)o1`: the solubility (kinetic) was less than 1 µg/mL.

`CCc1oc2ccccc2c1C(=O)c1cc(I)c(O)c(I)c1` had a solubility (kinetic) greater than 77 µg/mL.

In the case of `COCCNC(=O)c1ccc(-c2ccc(N3CCCCC3)nc2)cc1`, the kinetic solubility worked out at 4.58 µg/mL (≈ 13.5 µM).

As to `CCN1C(=O)c2ccccc2[S@](=O)c2ccc(C(=O)NCc3ccc(F)cc3)cc21`, the kinetic solubility was 18.1 µg/mL (≈ 42.9 µM).

As to `O=C1CCCC2=C1C(c1[nH]ncc1Cl)N=C(Nc1nc3ccccc3o1)N2` (stereo not given), the kinetic solubility is less than 1 µg/mL.

As for `O=[S+]([O-])(Nc1ccc(C2CCNCC2)cc1)c1ccc(NCc2ccc(Cl)cc2O)cc1`, the kinetic solubility worked out at 23.9 µg/mL (≈ 50.6 µM).

Turning to `O=C(c1ccc(C(=O)N2CCC(N3CCCC3)CC2)c(Nc2ccccc2)c1)N1CCC(N2CCCC2)CC1`, the kinetic solubility came to 63.8 µg/mL (≈ 120 µM).

As to `COc1cc(-c2ccnc3c2c(C)nn3-c2cccc(C(F)(F)F)c2)ccc1O`, the kinetic solubility was determined as 16.5 µg/mL (≈ 41.2 µM).

Compound `O=C1CN(C(=O)CCC(=O)N2CCc3c(nc4cc(-c5ccccc5)[nH]n4c3=O)C2)c2ccccc2N1` registered a kinetic solubility of 15.6 µg/mL (≈ 31.3 µM).

For `COc1cccc(CNc2ccc([S+](=O)([O-])Nc3ccccc3)cc2)c1Cl`, the solubility (kinetic) is less than 1 µg/mL.

As for `CCOc1ccc(CCNC(=O)c2cc3cccnc3n2Cc2cccc(C)n2)cc1OCC`, the kinetic solubility worked out at 43.8 µg/mL (≈ 95.4 µM).

In turn, `CN(C)c1ccc(-c2csc(N3CCC(C(N)=O)CC3)n2)cc1` had a solubility (kinetic) of 3.78 µg/mL (≈ 11.4 µM).

`N#Cc1cccc(-c2nccc(-n3ccnc3)n2)c1` had a solubility (kinetic) of 7.26 µg/mL (≈ 29.4 µM).

`c1ccc(Nc2cc3c(cn2)CN(Cc2ccc4[nH]ccc4c2)CCN3)cc1` yielded a solubility (kinetic) of 30.6 µg/mL (≈ 82.8 µM).

Compound `C#CCNC(=O)c1nc(-c2cccnc2)c2ccccn12` showed a kinetic solubility greater than 61 µg/mL.

As for `CCCCCn1cc2c(c1-c1ccc(Br)cc1)c(=O)n(C)c(=O)n2C`, the solubility (kinetic) was less than 1 µg/mL.

`Cc1ccc(NS(=O)(=O)c2c(C)[nH]c(C)c2C(=O)N2CCCC2)cc1Cl` came in with a kinetic solubility of 48 µg/mL (≈ 121 µM).

In turn, `Cc1ccc(NC(=O)c2cc(-c3ccc[nH]3)n[nH]2)cc1F` came in with a solubility (kinetic) greater than 28 µg/mL.

On to `O=C(Nc1ncc(Cc2ccc(C(F)(F)F)cc2)s1)c1cccc(-c2ccccc2)c1`, for which the kinetic solubility is less than 1 µg/mL.

`O=C(NCC1Cn2cccc2CN1Cc1cccnc1)Nc1ccccc1` (stereo not given) showed a solubility (kinetic) greater than 53 µg/mL.

`O=C(Nc1ccc2oc(-c3ccncc3)nc2c1)c1ccccc1Cl` yielded a solubility (kinetic) of less than 1 µg/mL.

`COc1ccc(C2c3[nH]c4ccc(OC)cc4c3CCN2C(=O)Nc2ccccc2)cc1` (stereo not given) displayed a solubility (kinetic) of 1.06 µg/mL (≈ 2.48 µM).

As for `CC(=O)N1CCC2(CCCN(c3ccc(-c4ccccc4)cc3)C2)CC1`, the kinetic solubility is less than 1 µg/mL.

Compound `O=c1[nH]cnc2nc[nH]c12` came in with a kinetic solubility of 8.8 µg/mL (≈ 64.7 µM).

As for `COc1cccc(CN(C)c2ccc([S+](=O)([O-])Nc3nccs3)cc2)c1O`, the solubility (kinetic) stood at 2.08 µg/mL (≈ 5.13 µM).

`COc1ccccc1NC(=O)C1=C(C)Nc2c(C(=O)Nc3ccc(F)cc3)cnn2C1c1ccc(Cl)cc1` (stereo not given): the kinetic solubility is less than 1 µg/mL.

`COc1ccc(C(=O)NC2CCCc3c2[nH]c2c(Cl)cccc32)cc1OC` (stereo not given) gave a kinetic solubility of 1.14 µg/mL (≈ 2.95 µM).

In turn, `Cn1ccc2c(C(=O)NCC3CCC(=O)N3)nc(-c3ccccc3C#N)cc21` (stereo not given) had a solubility (kinetic) of 52.4 µg/mL (≈ 140 µM).

As for `Fc1cnc(-c2ccccc2C(F)F)nc1NCC1CCN(c2cnccn2)C1` (stereo not given), the kinetic solubility was 42.2 µg/mL (≈ 105 µM).

On to `O=C1CCCC2=C1C(c1ccccc1I)N=C(Nc1nc3ccccc3o1)N2` (stereo not given), for which the kinetic solubility is less than 1 µg/mL.

In the case of `COc1ccc(NC(=O)c2[nH]c(C)c(C(C)=O)c2C)cc1S(=O)(=O)N1CCCCC1`, the solubility (kinetic) was 34.2 µg/mL (≈ 79 µM).

With `CCOc1ccc(CCNC(=O)c2cc3sccc3n2Cc2ccccn2)cc1OCC`, the solubility (kinetic) is less than 1 µg/mL.

Take `Cc1ccc(S(=O)(=O)Nc2cc(Cl)cc(C(=O)Nc3nc(-c4ccccc4)cs3)c2)cc1`: the solubility (kinetic) was less than 1 µg/mL.

Regarding `CC(C)c1ccc2oc3nc(N)c(C(=O)O)cc3c(=O)c2c1`, the kinetic solubility was greater than 44 µg/mL.

`CC(C)(C)OC(=O)NC1CCN(c2nc(-c3ccc(Br)cc3)cs2)CC1`: the kinetic solubility worked out at 6.48 µg/mL (≈ 14.8 µM).

As for `Cc1cccc(-c2noc([C@@H]3Cc4nc[nH]c4CN3)n2)c1`, the solubility (kinetic) came out at 18.3 µg/mL (≈ 65 µM).

As for `Cn1ccc2c(C(=O)NCc3cccnc3)nc(-c3ccc(CO)cc3)cc21`, the kinetic solubility was greater than 82 µg/mL.

`COc1ccc(C(=O)CCN(C)C)cc1F` showed a kinetic solubility greater than 33 µg/mL.

Regarding `O=C(Nc1ccc(OC(F)(F)F)cc1)c1sccc1NCc1ccnc2ccccc12`, the solubility (kinetic) was less than 1 µg/mL.

Turning to `COc1cc(-c2nc(Nc3ccc(F)c(F)c3)c3ccccc3n2)c(F)cn1`, the solubility (kinetic) is less than 1 µg/mL.

In the case of `Cc1cccc(Nc2nc(NCc3ccco3)c3ccccc3n2)c1.Cl`, the solubility (kinetic) is less than 1 µg/mL.

In turn, `CC(=O)Nc1ncc(S(=O)(=O)Nc2cnccc2C(=O)Nc2nc(-c3ccccc3)cs2)s1` had a solubility (kinetic) of 56.1 µg/mL (≈ 112 µM).

In turn, `NC(=O)C1CCN(c2nc(-c3ccc(OC(F)(F)F)cc3)cs2)CC1` had a kinetic solubility of less than 1 µg/mL.

Compound `COc1cccc(NS(=O)(=O)c2ccc(NCc3cccc(OC)c3O)cc2)c1` yielded a kinetic solubility of 1.92 µg/mL (≈ 4.64 µM).

In turn, `Cc1nc2ccc(Nc3nc(-c4ccncc4)nc4ccccc34)cc2s1` yielded a kinetic solubility of less than 1 µg/mL.

For the compound `Cc1ccc(S(=O)(=O)Nc2ccccc2C(=O)Nc2ncc(-c3ccccc3)o2)cc1`, the kinetic solubility is less than 1 µg/mL.

On to `Oc1ccc(CNc2ccc(C(F)(F)F)cc2F)c2cccnc12`, for which the kinetic solubility amounted to 6.45 µg/mL (≈ 19.2 µM).

Consider `Cc1ccc(S(=O)(=O)Nc2cnccc2C(=O)Nc2nc(-c3ccco3)cs2)cc1`, for which the solubility (kinetic) was greater than 65 µg/mL.

Regarding `COc1ccc(Cl)cc1C(=O)Nc1nc(-c2ccccc2)cs1`, the solubility (kinetic) was less than 1 µg/mL.
